Test results taken from the NIST ThermoML archive (doi:10.1016/j.jct.2017.02.023).
Numbers after ± are expanded uncertainties.

Assays:
[1] = xn = mol fraction of the nth substance listed; settings: 81.5 kPa, Liquid, Vibrating tube method
[2] = refractive index (Na D-line) (dimensionless); xn = mol fraction of the nth substance listed; settings: 81.5 kPa, Liquid, Standard Abbe refractometry

CNC1CCCCC1 [N-methylcyclohexylamine] + CCC(C)O
Settings | mass density, 298.15 K [kg/m3] | mass density, 308.15 K [kg/m3] | mass density, 318.15 K [kg/m3] | mass density, 328.15 K [kg/m3] | refractive index, 298.15 K | refractive index, 308.15 K | refractive index, 318.15 K | refractive index, 328.15 K
[1], x2 = 0 | 865.2 ± 1.6 | 856.57 ± 1.6 | 847.67 ± 1.6 | 838.68 ± 1.6 | – | – | – | –
[1], x2 = 0.1217 | 861.95 ± 1.6 | 853.4 ± 1.6 | 844.58 ± 1.6 | 835.58 ± 1.6 | – | – | – | –
[1], x2 = 0.2333 | 858.47 ± 1.6 | 849.82 ± 1.6 | 840.98 ± 1.6 | 831.86 ± 1.6 | – | – | – | –
[1], x2 = 0.3367 | 854.47 ± 1.6 | 845.86 ± 1.6 | 836.97 ± 1.6 | 827.75 ± 1.6 | – | – | – | –
[1], x2 = 0.4323 | 850 ± 1.6 | 841.4 ± 1.6 | 832.5 ± 1.6 | 823.2 ± 1.6 | – | – | – | –
[1], x2 = 0.5211 | 845.14 ± 1.6 | 836.51 ± 1.6 | 827.6 ± 1.6 | 818.27 ± 1.6 | – | – | – | –
[1], x2 = 0.603 | 840.01 ± 1.6 | 831.35 ± 1.6 | 822.48 ± 1.6 | 813.01 ± 1.6 | – | – | – | –
[1], x2 = 0.6803 | 834.52 ± 1.6 | 825.88 ± 1.6 | 817.02 ± 1.6 | 807.46 ± 1.6 | – | – | – | –
[1], x2 = 0.7528 | 828.72 ± 1.6 | 820.14 ± 1.6 | 811.27 ± 1.6 | 801.72 ± 1.6 | – | – | – | –
[1], x2 = 0.8202 | 822.7 ± 1.6 | 814.18 ± 1.6 | 805.33 ± 1.6 | 795.72 ± 1.6 | – | – | – | –
[1], x2 = 0.8827 | 816.47 ± 1.6 | 807.88 ± 1.6 | 799.18 ± 1.6 | 789.6 ± 1.6 | – | – | – | –
[1], x2 = 0.9426 | 809.83 ± 1.6 | 801.25 ± 1.6 | 792.58 ± 1.6 | 782.94 ± 1.6 | – | – | – | –
[2], x2 = 0 | – | – | – | – | 1.45306 ± 0.0016 | 1.44812 ± 0.0016 | 1.4431 ± 0.0016 | 1.43809 ± 0.0016
[2], x2 = 0.1217 | – | – | – | – | 1.44931 ± 0.0016 | 1.44493 ± 0.0016 | 1.44047 ± 0.0016 | 1.43597 ± 0.0016
[2], x2 = 0.2333 | – | – | – | – | 1.44578 ± 0.0016 | 1.44144 ± 0.0016 | 1.43701 ± 0.0016 | 1.43258 ± 0.0016
[2], x2 = 0.3367 | – | – | – | – | 1.44206 ± 0.0016 | 1.43776 ± 0.0016 | 1.4334 ± 0.0016 | 1.42907 ± 0.0016
[2], x2 = 0.4323 | – | – | – | – | 1.43795 ± 0.0016 | 1.43374 ± 0.0016 | 1.42946 ± 0.0016 | 1.4252 ± 0.0016
[2], x2 = 0.5211 | – | – | – | – | 1.43338 ± 0.0016 | 1.42927 ± 0.0016 | 1.42503 ± 0.0016 | 1.42076 ± 0.0016
[2], x2 = 0.603 | – | – | – | – | 1.42849 ± 0.0016 | 1.42444 ± 0.0016 | 1.42021 ± 0.0016 | 1.41587 ± 0.0016
[2], x2 = 0.6803 | – | – | – | – | 1.42326 ± 0.0016 | 1.41926 ± 0.0016 | 1.41502 ± 0.0016 | 1.41065 ± 0.0016
[2], x2 = 0.7528 | – | – | – | – | 1.41783 ± 0.0016 | 1.41387 ± 0.0016 | 1.40967 ± 0.0016 | 1.40535 ± 0.0016
[2], x2 = 0.8202 | – | – | – | – | 1.41236 ± 0.0016 | 1.40841 ± 0.0016 | 1.40429 ± 0.0016 | 1.4001 ± 0.0016
[2], x2 = 0.8827 | – | – | – | – | 1.40689 ± 0.0016 | 1.40292 ± 0.0016 | 1.39886 ± 0.0016 | 1.39478 ± 0.0016
[2], x2 = 0.9426 | – | – | – | – | 1.40126 ± 0.0016 | 1.39719 ± 0.0016 | 1.39303 ± 0.0016 | 1.38886 ± 0.0016
